The values below come from patent publication US12370463B2, “Continuous-flow, well mixed, microfluidic crystallization device for screening polymorphs, morphologies and crystallization kinetics at controlled supersaturation” (THE BOARD OF TRUSTEES OF THE UNIVERSITY OF ILLINOIS, priority 2019, dated 2025).

Assay type in all cases: physicochemical
Data set [1] can be described thus: Antisolvent crystallization of o-ABA in the microfluidic mixer, merged and separated inlet designs. The source says:
The crystals were formed at room temperature using ethanol as solvent and water as antisolvent. The microfluidic system was configured to have a cyclone-shaped geometry.
The microfluidic device was placed on the temperature-controlled stage of the optical microscope (Olympus BX53M, Olympus America Inc.). The o-ABA dissolved in ethanol and pure water was pumped separately into the microfluidic device using programmed syringe pumps (NE-4000, New Era Pump System Inc.). The flow rates of the o-ABA-ethanol solution and pure water were adjusted to achieve the desired supersaturations (S=1.2, 1.9, and 2.5), which were determined using the solubility curve of form I of o-ABA crystals. The inlets of the microfluidic device were connected with one-way check valves to avoid backflow from the mixer. The time-lapse images of the crystallization compartment were recorded using a built-in color camera (LC 30, Olympus America Inc.) of the optical microscope under the reflected light mode, which are also processed using MATLAB (MATLAB 9.3, The MathWorks Inc.) to measure growth rates and particle size distribution. The polymorphs of o-ABA at different supersaturations (S=1.2, 1.9, and 2.5) were identified using (i) distinct morphological features, such as form I having a prismatic morphology whereas form II has a needle-like morphology, and (ii) X-ray diffraction (XRD) experiments on a Bruker DISCOVER diffractometer with Cu Kα radiation.
The antisolvent crystallization of o-ABA was studied with a merged inlet design (FIG. 5) and results were compared with a separated inlet design. FIG. 11, panels A-H show the micrographs of the samples obtained from antisolvent crystallization of o-ABA in the ethanol-water mixture at two different supersaturations (S=1.2 and S=1.9). The relative relationship between the form and morphology of o-ABA allows for instant detection of each polymorph with the in-situ analysis.

A short description of data set [2]: Polymorph and morphology screening of L-histidine by antisolvent crystallization in the continuous-flow multi-well microfluidic mixer. Particulars: for polymorphic form obtained: water solvent, ethanol antisolvent, room temperature. The protocol:
The L-histidine crystals were formed at room temperature with water as the solvent and ethanol as the antisolvent, wherein the microfluidic system was configured to have a cyclone-shaped geometry.
The multi-well microfluidic mixer device was placed on a temperature-controlled stage of the optical microscope (Olympus BX53M, Olympus America Inc.). A saturated solution of L-histidine in water was prepared for the solubility measurement experiment at room temperature.
Eight different syringes were filled with solutions of L-histidine in the water at known concentrations as the source of solvent streams and the other eight syringes were filled with ethanol as antisolvent streams. Syringes were then inserted into 4 programmed syringe pumps (NE-4000, New Era Pump System Inc.). Inlets were connected to one-way microfluidic check valves to prevent backflow inside the channels.
All the microscopic images were recorded with a built-in color camera (LC 30, Olympus America Inc.) using reflected light mode. Capturing time-lapsed images and the growth rate analysis was performed for different samples. Further, these images were processed through MATLAB (MATLAB 9.3, The MathWorks Inc.) for form percentage measurements. L-histidine has two polymorphic form with different crystal habits reported in the literature.
After benchmarking the merged inlet geometry and observing the consistency between the two discussed geometry, the multiwell screening system 10 generally shown in FIG. 4 and using the eight microfluidic chambers 100 having the merged inlet geometry of FIG. 5 was used to perform a parallel screening of L-histidine.
(§1) With eight different microfluidic mixers accommodated on a single chip, eight different supersaturations were studied for polymorph and morphology screening of L-histidine. The results of the continuous flow microfluidic crystallizer were further compared with a batch 96 well plate system with single injection of the solutions in a 96 well plate system. Supersaturation adjustments were done by either changing the initial concentration of the API solution and maintaining a constant ratio for the solvent and antisolvent (1:1) or varying the ratios of two mixing streams for constant initial concentration of API in the solvent. Ratios of solvent and antisolvent were controlled by controlling the flowrates of each stream, respectively.
L-histidine with the two polymorphic forms of form A (stable) and form B (metastable) was selected for the parallel screening. The disclosed microfluidic system provides for the instantaneous, in-situ analysis of the polymorphic change. The studied supersaturations were divided into three regions of low, medium and high supersaturations to understand the effect of the supersaturation ratio on the polymorphic form ratios. […]

A short description of data set [3]: Polymorph and morphology screening of L-histidine in a batch 96 well plate, single injection.
Excerpt: as §1
A low supersaturation degree existed in the wells D, C, and H, where supersaturation was respectively 1.74, 1.14 and 1.15. For a medium range of the supersaturations, well B with S=2.28 and well G with S=2 were evaluated. The other three remaining wells, A, E and F represents the high supersaturation range with S=2.57, […], 3.14 respectively. Identical supersaturations for wells A to H were applied to a batch 96 well plate and optical images were collected after 5 and 30 minutes and shown in the micrographs A2 to H2 and A4 to H4.
In order to measure the growth rate for polymorphs of L-histidine at different supersaturations, time-lapsed images of each sample were taken each 60, 120 or 300 seconds after the crystals were first observed within the crystallization zone. […] To confirm the crystal faces, the crystallography of the polymorph B was imported into WINXMORPH and 3 final models were simulated for existing form B in the samples. The growth rate measurements of the form A crystals, however was done by measuring the distance between the two longest faces due to the significant aspect ratio of the two dominant faces of this crystal form. Using MATLAB (MATLAB 9.3, The MathWorks Inc.) the ratio of the polymorphic form A was measured for the eight samples in both continuous flow crystallizer as well as the batch 96 well plate system. […]

Each structure is given as a SMILES string.

Turning to `Nc1ccccc1C(=O)O` [o-ABA, o-aminobenzoic acid], the polymorphic form obtained result is “metastable form II was obtained” in data set [1] (S=1.9, merged inlets geometry) and “crystals of polymorphic form I are obtained” in data set [1] (lower supersaturations, ethanol-water mixture). In addition, the “polymorphic transformation during the experiment” value in data set [1] (S=1.9, merged inlets geometry, constant supersaturation) is “did not transform to the stable form”.
Turning to `N[C@@H](Cc1c[nH]cn1)C(=O)O` [L-histidine], the crystal size distribution entry in data set [2] (continuous microfluidic mixer) is “more uniform and have a narrower size distribution”; in data set [3] (batch 96 well plate) it was “wide range of size distribution”. The “growth rates of crystals at similar supersaturation” value in data set [2] (continuous microfluidic mixer, time-lapsed images) is listed as “almost constant”. In addition, the polymorphic form obtained entry was “a mixture of forms A and B” in data set [2] (supersaturations below 2.3 (low and medium ranges)); “only crystallizes in form B” in data set [2] (supersaturations higher than 2.3); “a mixture of both polymorphic forms” in data set [3] (high supersaturation, batch 96 well plate). The “growth rates of crystals over the time of the measurements” value in data set [3] (identical samples in the batch system) is listed as “decrease significantly”.
